Data from patent publication US6737383B1, “Herbicidal oxadiazolidines” (priority 1999, dated 2004).

Assays:
duck salad = assay: Test B flood test duck salad; assay type: in vivo, Heteranthera limosa; conditions: Pre-emergence
Procedure, shortened: (§1)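 Each value is a visual injury score relative to controls, with 10 meaning complete control and 0 no effect. Evaluation took place twelve to sixteen days after the 2-leaf-stage plants were treated and kept in the greenhouse.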

rape = assay: Test B pre/postemergence rape; assay type: in vivo, Brassica napus
Procedure, shortened: (§2)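 Herbicidal effect was estimated by eye on a ten-point control scale after plants spent twelve to sixteen days in a greenhouse following soil or foliar treatment. Foliar sprays targeted plants at one to four leaves; all doses were formulated in a non-phytotoxic solvent with surfactant.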

corn = assay: Test B pre/postemergence corn; assay type: in vivo, Zea mays
Procedure, shortened: as §2

rice = assay: Test B flood test rice; assay type: in vivo, Oryza sativa; conditions: Pre-emergence
Procedure, shortened: as §1

bamyardgrass = assay: Test B flood test barnyardgrass; assay type: in vivo, Echinochloa crus-galli; conditions: Pre-emergence
Procedure, shortened: as §1

bedstraw = assay: Test B pre/postemergence bedstraw; assay type: in vivo, Galium aparine
Procedure, shortened: as §2

purple nutsedge = assay: Test B pre/postemergence purple nutsedge; assay type: in vivo, Cyperus rotundus
Procedure, shortened: as §2

giant foxtail = assay: Test B pre/postemergence giant foxtail; assay type: in vivo, Setaria faberii
Procedure, shortened: as §2

pigweed = assay: Test B pre/postemergence pigweed; assay type: in vivo, Amaranthus retroflexus
Procedure, shortened: as §2

soybean = assay: Test B pre/postemergence soybean; assay type: in vivo, Glycine max
Procedure, shortened: as §2

blackgrass = assay: Test B pre/postemergence blackgrass; assay type: in vivo, Alopecurus myosuroides
Procedure, shortened: as §2

morningglory = assay: Test B pre/postemergence morningglory; assay type: in vivo, Ipomoea hederacea
Procedure, shortened: as §2

sugar beet = assay: Test B pre/postemergence sugar beet; assay type: in vivo, Beta vulgaris
Procedure, shortened: as §2

surinam grass = assay: Test B pre/postemergence surinam grass; assay type: in vivo, Brachiaria decumbens
Procedure, shortened: as §2

smallflower flatsedge = assay: Test B flood test smallflower flatsedge; assay type: in vivo, Cyperus difformis; conditions: Pre-emergence
Procedure, shortened: as §1

velvetleaf = assay: Test B pre/postemergence velvetleaf; assay type: in vivo, Abutilon theophrasti
Procedure, shortened: as §2

[1] = Rate 1000 g/ha, scale 0 to 10 (0 no effect, 10 complete control)
[2] = Rate 125 g/ha, flood test species, scale 0 to 10 where 0 is no effect and 10 is complete control
[3] = Rate 250 g/ha, flood-test species, scale 0 to 10, 0 is no effect, 10 is complete control
[4] = Preemergence, Rate 62 g/ha, scale of 0 to 10 where 0 is no effect and 10 is complete control
[5] = Preemergence, Rate 250 g/ha, scale of 0 to 10 where 0 is no effect and 10 is complete control
[6] = Preemergence, Rate 500 g/ha, scale of 0 to 10 where 0 is no effect and 10 is complete control
[7] = Rate 62 g/ha, Postemergence, scale 0 to 10, 0 no effect, 10 complete control
[8] = Rate 125 g/ha, Postemergence, scale of 0 to 10 where 0 is no effect and 10 is complete control
[9] = Rate 250 g/ha, Postemergence, scale of 0 to 10 where 0 is no effect and 10 is complete control
[10] = Rate 500 g/ha, Postemergence, scale 0 to 10, 0 no effect, 10 complete control

CC(C)N(C(=O)n1oc(=O)n(CC2CCCC2)c1=O)c1ccc(F)cc1 [Compound 322]
Ducksalad plant response rating (duck salad; [1]): 0
Ducksalad plant response rating (duck salad; [2]): 0
Ducksalad plant response rating (duck salad; [3]): 0
Rape plant response rating (rape; [4]): 0
Rape plant response rating (0 to 10 scale) (rape; Preemergence, Rate 125 g/ha): 0
Rape plant response rating (rape; [5]): 0
Rape plant response rating (rape; [6]): 2
Rape plant response rating (rape; [7]): 0
Rape plant response rating (rape; [8]): 0
Plant response rating, Rape (rape; [9]): 0
Plant response rating, Rape (rape; [10]): 0
Corn plant response rating (corn; [4]): 0
Corn plant response rating (0 to 10 scale) (corn; Preemergence, Rate 125 g/ha): 0
Corn plant response rating (corn; [5]): 0
Corn plant response rating (corn; [6]): 0
Corn plant response rating (corn; [7]): 0
Corn plant response rating (corn; [8]): 0
Plant response rating, Corn (corn; [9]): 0
Plant response rating, Corn (corn; [10]): 0
Rice plant response rating (rice; [1]): 0
Rice plant response rating (rice; [2]): 0
Rice plant response rating (rice; [3]): 0
Barnyardgrass plant response rating (bamyardgrass; [1]): 9
Barnyardgrass plant response rating (bamyardgrass; [2]): 3
Barnyardgrass plant response rating (bamyardgrass; [3]): 7
Bedstraw plant response rating (bedstraw; [4]): 0
Bedstraw plant response rating (0 to 10 scale) (bedstraw; Preemergence, Rate 125 g/ha): 0
Bedstraw plant response rating (bedstraw; [6]): 2
Bedstraw plant response rating (bedstraw; [7]): 0
Bedstraw plant response rating (bedstraw; [8]): 0
Plant response rating, Bedstraw (bedstraw; [9]): 4
Plant response rating, Bedstraw (bedstraw; [10]): 4
Nutsedge plant response rating (purple nutsedge; [4]): 0
Nutsedge plant response rating (0 to 10 scale) (purple nutsedge; Preemergence, Rate 125 g/ha): 0
Nutsedge plant response rating (purple nutsedge; [5]): 0
Nutsedge plant response rating (purple nutsedge; [6]): 0
Nutsedge plant response rating (purple nutsedge; [7]): 0
Nutsedge plant response rating (purple nutsedge; [8]): 0
Plant response rating, Nutsedge (purple nutsedge; [9]): 0
Plant response rating, Nutsedge (purple nutsedge; [10]): 0
Giant foxtail plant response rating (giant foxtail; [4]): 6
Giant foxtail plant response rating (0 to 10 scale) (giant foxtail; Preemergence, Rate 125 g/ha): 9
Giant foxtail plant response rating (giant foxtail; [5]): 9
Giant foxtail plant response rating (giant foxtail; [6]): 10
Giant foxtail plant response rating (giant foxtail; [7]): 0
Giant foxtail plant response rating (giant foxtail; [8]): 0
Plant response rating, Giant foxtail (giant foxtail; [9]): 1
Plant response rating, Giant foxtail (giant foxtail; [10]): 4
Redroot pigweed plant response rating (pigweed; [4]): 0
Redroot pigweed plant response rating (0 to 10 scale) (pigweed; Preemergence, Rate 125 g/ha): 6
Redroot pigweed plant response rating (pigweed; [5]): 8
Redroot pigweed plant response rating (pigweed; [6]): 8
Redroot pigweed plant response rating (pigweed; [7]): 2
Redroot pigweed plant response rating (pigweed; [8]): 3
Plant response rating, Redroot pigweed (pigweed; [9]): 3
Plant response rating, Redroot pigweed (pigweed; [10]): 6
Soybean plant response rating (soybean; [4]): 0
Soybean plant response rating (0 to 10 scale) (soybean; Preemergence, Rate 125 g/ha): 0
Soybean plant response rating (soybean; [5]): 0
Soybean plant response rating (soybean; [6]): 0
Soybean plant response rating (soybean; [7]): 1
Soybean plant response rating (soybean; [8]): 3
Plant response rating, Soybean (soybean; [9]): 4
Plant response rating, Soybean (soybean; [10]): 5
Blackgrass plant response rating (blackgrass; [4]): 0
Blackgrass plant response rating (0 to 10 scale) (blackgrass; Preemergence, Rate 125 g/ha): 0
Blackgrass plant response rating (blackgrass; [5]): 5
Blackgrass plant response rating (blackgrass; [6]): 7
Blackgrass plant response rating (blackgrass; [7]): 0
Blackgrass plant response rating (blackgrass; [8]): 0
Plant response rating, Blackgrass (blackgrass; [9]): 1
Plant response rating, Blackgrass (blackgrass; [10]): 8
Morningglory plant response rating (morningglory; [4]): 0
Morningglory plant response rating (0 to 10 scale) (morningglory; Preemergence, Rate 125 g/ha): 0
Morningglory plant response rating (morningglory; [5]): 0
Morningglory plant response rating (morningglory; [6]): 0
Morningglory plant response rating (morningglory; [7]): 4
Morningglory plant response rating (morningglory; [8]): 4
Plant response rating, Morningglory (morningglory; [9]): 7
Plant response rating, Morningglory (morningglory; [10]): 8
Sugarbeets plant response rating (sugar beet; [4]): 0
Sugarbeets plant response rating (0 to 10 scale) (sugar beet; Preemergence, Rate 125 g/ha): 2
Sugarbeets plant response rating (sugar beet; [5]): 2
Sugarbeets plant response rating (sugar beet; [6]): 4
Sugarbeets plant response rating (sugar beet; [7]): 0
Sugarbeets plant response rating (sugar beet; [8]): 0
Plant response rating, Sugarbeets (sugar beet; [9]): 0
Plant response rating, Sugarbeets (sugar beet; [10]): 2
B. signalgrass plant response rating (surinam grass; [4]): 0
B. signalgrass plant response rating (0 to 10 scale, 0 is no effect, 10 is complete control) (surinam grass; Preemergence, Rate 125 g/ha): 0
B. signalgrass plant response rating (surinam grass; [5]): 1
B. signalgrass plant response rating (surinam grass; [6]): 3
B. signalgrass plant response rating (surinam grass; [7]): 0
B. signalgrass plant response rating (surinam grass; [8]): 0
Plant response rating, B. signalgrass (surinam grass; [9]): 0
Plant response rating, B. signalgrass (surinam grass; [10]): 3
S. Flatsedge plant response rating (smallflower flatsedge; [1]): 0
S. Flatsedge plant response rating (smallflower flatsedge; [2]): 0
S. Flatsedge plant response rating (smallflower flatsedge; [3]): 0
Velvetleaf plant response rating (velvetleaf; [4]): 0
Velvetleaf plant response rating (0 to 10 scale) (velvetleaf; Preemergence, Rate 125 g/ha): 0
Velvetleaf plant response rating (velvetleaf; [5]): 0
Velvetleaf plant response rating (velvetleaf; [6]): 0
Velvetleaf plant response rating (velvetleaf; [7]): 0
Velvetleaf plant response rating (velvetleaf; [8]): 0
Plant response rating, Velvetleaf (velvetleaf; [9]): 0
Plant response rating, Velvetleaf (velvetleaf; [10]): 2
